Test results as given in BindingDB's records for doi:10.7270/Q2D798VP (Broad Institute, 2009).

Biological target: T1, Zinc finger protein mex-5 (Caenorhabditis elegans, UniProt Q9XUB2)
T1 sequence (Q9XUB2 whole entry): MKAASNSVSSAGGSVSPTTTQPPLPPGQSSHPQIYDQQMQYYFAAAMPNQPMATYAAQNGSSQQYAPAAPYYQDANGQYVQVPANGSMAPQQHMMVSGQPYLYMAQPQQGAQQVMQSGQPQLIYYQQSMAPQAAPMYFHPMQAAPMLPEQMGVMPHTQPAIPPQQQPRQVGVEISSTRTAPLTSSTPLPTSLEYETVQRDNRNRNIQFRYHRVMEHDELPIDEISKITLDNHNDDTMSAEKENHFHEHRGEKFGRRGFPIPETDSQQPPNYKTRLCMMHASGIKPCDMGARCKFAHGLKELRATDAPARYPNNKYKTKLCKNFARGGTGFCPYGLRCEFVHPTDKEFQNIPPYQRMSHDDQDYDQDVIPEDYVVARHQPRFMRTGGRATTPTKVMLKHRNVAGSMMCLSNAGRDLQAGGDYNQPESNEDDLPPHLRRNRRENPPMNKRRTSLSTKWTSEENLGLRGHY
Experiment: potency of MEX-5 RNA-binding blockers – biochemical, C. elegans, fluorescence polarization, dose response (AID 1960)

Which EC50 does the source give for `CN1CCC2=C(C#N)C(=N)C(C#N)(C#N)C(c3cccc(Cl)c3Cl)C2C1` (configuration not stated) [6-azanyl-8-[2,3-bis(chloranyl)phenyl]-2-methyl-1,3,8,8a-tetrahydroisoquinoline-5,7,7-tricarbonitrile] here?
The EC50 was 13.5 µM.

How did the EC50 turn out when `Cn1c(=O)[nH]c(=O)c2c1nc(N=NC=C(Br)Cc1ccccc1)n2CCO` [SMR000436442] was run?
Its EC50 is 55.5 µM.

For `CC(=O)C1C(c2ccccc2)=NC(=O)NC1c1ccc(O)c(O)c1` (configuration not stated) [4-[3,4-bis(oxidanyl)phenyl]-5-ethanoyl-6-phenyl-3,4-dihydro-1H-pyrimidin-2-one], which EC50 is on record?
The EC50 was 43.4 µM.

How did the EC50 turn out when `O=C1C=CC(/C=C/c2nc(O)c([N+](=O)[O-])c(=O)[nH]2)C=C1O` (configuration not stated) [SMR000524347] was run?
The EC50 was 179 µM.

`O=[N+]([O-])c1cc([CH+][N-]n2c(O)csc2=S)ccc1Cl` [3-[(4-chloranyl-3-nitro-phenyl)methylideneamino]-2-sulfanylidene-1,3-thiazolidin-4-one] was tested. Which EC50 did it give?
Its EC50 is 15.7 µM.

With `NC(=NNC=c1ccc(=C2C=CC(=O)C(C(=O)O)=C2)o1)N[N+](=O)[O-]` [5-(5-{2-[amino(nitroimino)methyl]carbonohydrazonoyl}-2-furyl)-2-hydroxybenzoic acid] as the compound, how does the EC50 read?
The EC50 was 26.1 µM.

`O=C1NC(=O)N(CCc2ccc(F)cc2)C(=O)C1=CNNC(=O)c1ccccc1` [N'-[(E)-[1-[2-(4-fluorophenyl)ethyl]-2,4,6-trioxo-1,3-diazinan-5-ylidene]methyl]benzohydrazide] was tested. Which EC50 did it give?
The EC50 was > 300 µM.

Which EC50 does the source give for `Cc1cc(-c2ccccc2)nc(N=NCc2ccc(O)cc2O)n1` [SMR000513422] here?
The EC50 was 54 µM.

How did the EC50 turn out when `O=C1NC(=O)N(Cc2ccccc2Cl)C(=O)C1=CNc1ccc(F)cc1` [(5E)-1-(2-chlorobenzyl)-5-[(4-fluoroanilino)methylene]barbituric acid] was run?
Its EC50 is > 300 µM.

How did the EC50 turn out when `CN(C)c1ccc(NC=C2C(=O)NC(=O)N(CCC3=CCCCC3)C2=O)cc1` [(5Z)-1-[2-(cyclohexen-1-yl)ethyl]-5-[[[4-(dimethylamino)phenyl]amino]methylidene]-1,3-diazinane-2,4,6-trione] was run?
The EC50 was > 300 µM.

For `Cc1ccc(C(=O)C2C(=O)C(=O)N(Cc3ccco3)C2c2cccc(Br)c2)o1` (configuration not stated) [2-(3-bromophenyl)-1-(2-furanylmethyl)-4-hydroxy-3-[(5-methyl-2-furanyl)-oxomethyl]-2H-pyrrol-5-one], which EC50 is on record?
Its EC50 is 35.6 µM.

With `CC1(C)CC(=O)C2=C(C1)OC(=N)C(C#N)C21C(=O)N(CN2CCOCC2)c2ccccc21` (configuration not stated) [2-amino-2',5-diketo-7,7-dimethyl-1'-(morpholinomethyl)spiro[6,8-dihydrochromene-4,3'-indoline]-3-carbonitrile] as the compound, how does the EC50 read?
The EC50 was > 300 µM.

For `O=C1NC(=O)N(CCc2ccccc2)C(=O)C1=CNNC(=O)c1ccncc1` [N'-[(E)-[2,4,6-trioxo-1-(2-phenylethyl)-1,3-diazinan-5-ylidene]methyl]-4-pyridinecarbohydrazide], which EC50 is on record?
The EC50 was > 300 µM.

How did the EC50 turn out when `COC(=O)c1ccc(-n2c(C)cc(CN=Nc3nc(C)cc(=O)[nH]3)c2C)cc1` [SMR000364461] was run?
The EC50 was > 300 µM.

For `N#CC1C(=N)OC2=C(C(=O)CC(c3ccco3)C2)C1c1ccc(OCc2c(F)cccc2Cl)cc1` (configuration not stated) [2-azanyl-4-[4-[(2-chloranyl-6-fluoranyl-phenyl)methoxy]phenyl]-7-(furan-2-yl)-5-oxidanylidene-4,6,7,8-tetrahydrochromene-3-carbonitrile], which EC50 is on record?
Its EC50 is > 300 µM.

With `COc1cccc(CN=Nc2ncnc(N)c2[N+](=O)[O-])c1OC` [(6-amino-5-nitro-pyrimidin-4-yl)-[(2,3-dimethoxybenzylidene)amino]amine] as the compound, how does the EC50 read?
The EC50 was > 300 µM.

`CC1=C(C#N)C(=O)N(C)C(=O)C1=CN` [(5Z)-5-(aminomethylidene)-1,4-dimethyl-2,6-dioxopyridine-3-carbonitrile] was tested. Which EC50 did it give?
Its EC50 is > 300 µM.

For `COc1ccc(N=Cc2cc3c(cc2O)OC(=N)C(C#N)C3c2ccccc2)cc1` (configuration not stated) [(6E)-2-amino-6-[(4-methoxyanilino)methylidene]-7-oxo-4-phenyl-4H-1-benzopyran-3-carbonitrile], which EC50 is on record?
The EC50 was > 300 µM.

With `Oc1ccc(C=Nn2c(O)csc2=S)c(O)c1O` [3-[[(E)-[2,3-bis(oxidanyl)-4-oxidanylidene-cyclohexa-2,5-dien-1-ylidene]methyl]amino]-2-sulfanylidene-1,3-thiazolidin-4-one] as the compound, how does the EC50 read?
The EC50 was 0.668 µM.

How did the EC50 turn out when `O=C1NC(=O)N(CCc2ccccc2)C(=O)C1=CNNC(=O)c1ccccc1` [SMR000433912] was run?
Its EC50 is 150 µM.

With `Cc1cc(CN=Nc2ccc([N+](=O)[O-])cn2)c(C)n1-c1cccc(C(=O)O)c1` [3-[2,5-dimethyl-3-[[(5-nitro-2-pyridinyl)hydrazinylidene]methyl]-1-pyrrolyl]benzoic acid] as the compound, how does the EC50 read?
Its EC50 is 37.7 µM.

With `COc1ccc(N2C(=O)NC(=O)C(=Cc3c[nH]c4ccc(Br)cc34)C2=O)c(OC)c1` [(5E)-5-[(5-bromo-1H-indol-3-yl)methylene]-1-(2,4-dimethoxyphenyl)pyrimidine-2,4,6(1H,3H,5H)-trione] as the compound, how does the EC50 read?
The EC50 was > 300 µM.

For `N#CC1C(=N)OC2=C(C(=O)CC(c3ccccc3)C2)C1c1ccc2c(c1)OCO2` (configuration not stated), which EC50 is on record?
Its EC50 is > 300 µM.

With `Cc1cc(C=C2C(=O)NC(=O)N(c3ccc(Cl)cc3)C2=O)c(C)n1C` [(5E)-1-(4-chlorophenyl)-5-[(1,2,5-trimethyl-3-pyrrolyl)methylidene]-1,3-diazinane-2,4,6-trione] as the compound, how does the EC50 read?
The EC50 was 47.7 µM.

Which EC50 does the source give for `CCOc1ccc(N=C(C(=C(Cl)C(Cl)Cl)[N+](=O)[O-])n2cncn2)cc1` [MLS000519210] here?
The EC50 was 45.4 µM.

How did the EC50 turn out when `N#CC1=C2CCCCC2C(c2cccnc2)C(C#N)(C#N)C1=N` (configuration not stated) [2-amino-4-(3-pyridinyl)-4a,5,6,7-tetrahydro-4H-naphthalene-1,3,3-tricarbonitrile] was run?
Its EC50 is 17.5 µM.

For `C(=NNC(=Nc1ccccc1)c1ccccn1)c1ccccn1` [SMR000174637], which EC50 is on record?
Its EC50 is 94.4 µM.

`COc1ccc(C2C(C(=O)c3ccco3)C(=O)C(=O)N2c2nnc(C)s2)cc1OC` (configuration not stated) [2-(3,4-dimethoxyphenyl)-3-(furan-2-carbonyl)-4-hydroxy-1-(5-methyl-1,3,4-thiadiazol-2-yl)-2H-pyrrol-5-one] was tested. Which EC50 did it give?
The EC50 was 297 µM.

How did the EC50 turn out when `CC(N=Nc1ccc(Cl)c(C(=O)O)c1)c1ccc[nH]1` (configuration not stated) [2-chloro-5-[2-[(1Z)-1-pyrrol-2-ylideneethyl]hydrazinyl]benzoic acid] was run?
Its EC50 is 150 µM.

`COC(=O)c1[nH]c2cc(OC)c(OC)cc2c1CN=Nc1ccccc1` [methyl (3Z)-5,6-dimethoxy-3-[(2-phenylhydrazinyl)methylidene]indole-2-carboxylate] was tested. Which EC50 did it give?
Its EC50 is 20.3 µM.

With `N#CC1C(=N)OC2=C(C(=O)CCC2)C1c1cc2c(cc1Br)OCO2` (configuration not stated) [2-azanyl-4-(6-bromanyl-1,3-benzodioxol-5-yl)-5-oxidanylidene-4,6,7,8-tetrahydrochromene-3-carbonitrile] as the compound, how does the EC50 read?
Its EC50 is > 300 µM.

`Cc1ccc(Cl)c2c1NC(=O)/C2=C1/NC(=S)NC1=O` was tested. Which EC50 did it give?
Its EC50 is 0.294 µM.

How did the EC50 turn out when `N#CC1C(=N)C2=C(N3CCCCC3)CCCC2C1(C#N)C#N` (configuration not stated) [3-Amino-4-piperidin-1-yl-5,6,7,7a-tetrahydro-indene-1,1,2-tricarbonitrile] was run?
Its EC50 is 77.1 µM.

`O=C1Nc2ccccc2/C1=N/NC(=S)Nc1ccc(O)cc1` [1-(4-hydroxyphenyl)-3-[(2-oxidanylideneindol-3-yl)amino]thiourea] was tested. Which EC50 did it give?
Its EC50 is 3.98 µM.

Which EC50 does the source give for `C=CCSc1nnc(N2C(=O)C(=O)C(C(=O)c3ccco3)C2c2ccccc2F)s1` (configuration not stated) [1-[5-(allylthio)-1,3,4-thiadiazol-2-yl]-5-(2-fluorophenyl)-4-(2-furoyl)-3-hydroxy-3-pyrrolin-2-one] here?
The EC50 was 54.8 µM.

For `CCCCCCN1C(=O)C(=CNc2ccccc2N2CCOCC2)C(=O)NC1=S` [MLS000333666], which EC50 is on record?
The EC50 was > 300 µM.

With `Cc1cccc(Nc2nc(O)cs2)c1` [2-(3-methylanilino)-1,3-thiazol-4-one] as the compound, how does the EC50 read?
Its EC50 is > 300 µM.

How did the EC50 turn out when `COc1cc(OC)c(C2C3=C(CC(C)CC3=O)OC(=N)C2C#N)cc1OC` (configuration not stated) [2-amino-4-asaryl-5-keto-7-methyl-4,6,7,8-tetrahydrochromene-3-carbonitrile] was run?
The EC50 was > 300 µM.

For `O=C(CC(=O)c1ccccc1)C(=O)NNC(=O)c1ccccc1[N+](=O)[O-]` [2-Nitro-benzoic acid N'-(2-hydroxy-4-oxo-4-phenyl-but-2-enoyl)-hydrazide], which EC50 is on record?
The EC50 was 1.11 µM.

How did the EC50 turn out when `COc1ccccc1-n1c(O)c2n(-c3ccc(C)cc3)[nH]c(C(=O)c3ccccc3)c-2c1=O` was run?
The EC50 was 14.3 µM.

With `O=C1NC(=O)N(CCc2ccc(F)cc2)C(=O)C1=CNCCCn1ccnc1` [(5E)-1-[2-(4-fluorophenyl)ethyl]-5-[(3-imidazol-1-ylpropylamino)methylene]barbituric acid] as the compound, how does the EC50 read?
Its EC50 is > 300 µM.

For `C=CCOc1cccc(C2C(C(=O)c3cc4ccccc4o3)C(=O)C(=O)N2c2cc(C)on2)c1` (configuration not stated) [3-(1-benzofuran-2-carbonyl)-4-hydroxy-1-(5-methyl-1,2-oxazol-3-yl)-2-(3-prop-2-enoxyphenyl)-2H-pyrrol-5-one], which EC50 is on record?
Its EC50 is 80.5 µM.

How did the EC50 turn out when `Cc1ccc(N/N=C2/C(=O)Nc3ccc(F)cc32)cc1` [5-fluoro-3-[2-(4-methylphenyl)hydrazono]indolin-2-one] was run?
The EC50 was > 300 µM.

`N#CCC(=N)C(C#N)C#N` [1,1,3-tricyano-2-amino-1-propene] was tested. Which EC50 did it give?
The EC50 was 169 µM.

`CC1(C)CC(=O)C2Sc3ccccc3N=C2C1` (configuration not stated) [2,2-Dimethyl-2,3-dihydro-1H,10H-phenothiazin-4-one] was tested. Which EC50 did it give?
The EC50 was 59.3 µM.

Which EC50 does the source give for `N#CC1C(=N)OC2=C(C(=O)CCC2)C1c1ccc(OC(=O)N2CCOCC2)cc1` (configuration not stated) [4-(2-amino-3-cyano-5-oxo-5,6,7,8-tetrahydro-4H-chromen-4-yl)phenyl morpholine-4-carboxylate] here?
Its EC50 is > 300 µM.

`CC(C)c1nnc(N2C(=O)C(=O)C(C(=O)c3cccs3)C2c2ccccc2)s1` (configuration not stated) [3-hydroxy-1-(5-isopropyl-1,3,4-thiadiazol-2-yl)-5-phenyl-4-(2-thenoyl)-3-pyrrolin-2-one] was tested. Which EC50 did it give?
The EC50 was 4.38 µM.
